Assay results: US10112918B2, “15-oxospiramilactone derivatives, preparation method and uses thereof” (Kunming Institute of Botany, The Chinese Academy of Sciences, priority 2013, dated 2018)
Where two headings read alike, the source gives them in different places.

Assays:
Type in all cases: cell-based
[1] = test system: A-549 (Human lung adenocarcinoma cells); experiment: MTT inhibition of tumor cell growth, A-549; settings: Homo sapiens, A549, 48 h
In short: (§1)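 Cells were seeded at 5000-10000 per well in DMEM or RPMI1640 with 10% FBS, adherent lines pre-cultured 12 h. Compounds were tested at 40 μM, with 5-concentration re-screening for those near 50% inhibition, in triplicate for 48 h at 37° C; MTT/SDS absorbance at 595 nm gave IC50 by Reed-Muench.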

[2] = test system: SW-480 (human colon cancer cells); experiment: MTT inhibition of tumor cell growth, SW-480; settings: Homo sapiens, SW480, 48 h
In short: as §1

[3] = test system: MCF-7 (human breast cancer cells); experiment: MTT inhibition of tumor cell growth, MCF-7; settings: Homo sapiens, MCF7, 48 h
In short: as §1

[4] = test system: SMMC-7721 (human hepatoma cells); experiment: MTT inhibition of tumor cell growth, SMMC-7721; settings: Homo sapiens, SMMC-7721, 48 h
In short: as §1

[5] = test system: Wnt signaling pathway (Top-Flash reporter gene); experiment: Top-Flash Wnt reporter gene assay in HEK293T cells with Wnt3a conditioned medium
In short: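 IC50 is the concentration giving relative residual reporter activity of 0.5 by 4-parameter logistic fit, after subtracting conditioned-medium DMSO background and normalizing to Wnt-induced signal. Luciferase read from HEK293T carrying TOP-flash and GFP internal standard, exposed 6 h to L-cell Wnt3a conditioned medium plus compound.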

[6] = Table 1, 7-hydroxy derivatives of S-3
[7] = Table 2, derivatives having potential Michael reaction acceptor
[8] = Table 3, single Michael reaction acceptor, modified lactonic ring
[9] = Table 4, derivatives obtained by reduction of the lactonic ring
[10] = Table 5, derivatives having double Michael reaction acceptor
[11] = Table 7 (first), alkaloid derivatives

## C=C1C(=O)[C@]23CC[C@H]1CC2[C@@]12CCC[C@@](C)(COC1=O)C2C[C@H]3O (some centres unmarked) [Compound 1, 15-oxospiramilactone]
[1]; [6]
  IC50: 3.22 µM
[1]; [7]
  IC50: 3.22 µM
[1]; [8]
  IC50: 3.22 µM
[1]; [9]
  IC50: 3.22 µM
[1]; [10]
  IC50: 3.22 µM
[1]; [11]
  IC50: 3.22 µM
[2]; Table 1, 7-hydroxy derivatives of S-3, read-out: IC50 SW-480
  IC50: 3.58 µM
[2]; Table 2, derivatives having potential Michael reaction acceptor, read-out: IC50 SW-480
  IC50: 3.58 µM
[2]; Table 3, single Michael reaction acceptor, modified lactonic ring, read-out: IC50 SW-480
  IC50: 3.58 µM
[2]; Table 4, derivatives obtained by reduction of the lactonic ring, read-out: IC50 SW-480
  IC50: 3.58 µM
[2]; Table 5, derivatives having double Michael reaction acceptor, read-out: IC50 SW-480
  IC50: 3.58 µM
[2]; Table 6, 7-hydroxyl derivatives and controls, read-out: IC50 SW-480, 7-hydroxyl derivatives
  IC50: 2.99 µM
[2]; Table 7 (first), alkaloid derivatives, read-out: IC50 SW-480
  IC50: 3.58 µM
[3]; [6]
  IC50: 3.25 µM
[3]; [7]
  IC50: 3.25 µM
[3]; [8]
  IC50: 3.25 µM
[3]; [9]
  IC50: 3.25 µM
[3]; [10]
  IC50: 3.25 µM
[3]; [11]
  IC50: 3.25 µM
[4]; [6]
  IC50: 3.96 µM
[4]; [7]
  IC50: 3.96 µM
[4]; [8]
  IC50: 3.96 µM
[4]; [9]
  IC50: 3.96 µM
[4]; [10]
  IC50: 3.96 µM
[4]; [11]
  IC50: 3.96 µM
[5]; Homo sapiens, HEK-293T, 6 h, Table 7 (second), derivatives modified on 7-hydroxyl of S-3, HEK293T, Wnt3a conditioned medium, 6 h, read-out: IC50 (μM), inhibitory activity on the Wnt signaling pathway
  IC50: 18.4 ± 1.82 µM
[5]; Homo sapiens, HEK-293T, 6 h, Table 8, HEK293T, Wnt3a conditioned medium, 6 h, read-out: IC50 (μM), inhibitory activity on the Wnt signaling pathway
  IC50: 18.7 ± 0.58 µM
[5]; Homo sapiens, HEK-293T, 6 h, Table 9, HEK293T, Wnt3a conditioned medium, 6 h, read-out: IC50(μM), inhibitory activity on the Wnt signaling pathway
  IC50: 18 ± 0.28 µM
[5]; Homo sapiens, HEK-293T, 6 h, Table 10, HEK293T, Wnt3a conditioned medium, 6 h, read-out: IC50 (μM), inhibitory activity on the Wnt signaling pathway
  IC50: 13.9 ± 2.01 µM
[5]; Homo sapiens, HEK-293T, 6 h, Table 11, HEK293T, Wnt3a conditioned medium, 6 h, read-out: IC50 (μM), inhibitory activity on the Wnt signaling pathway
  IC50: 22.5 ± 0.56 µM
[5]; Homo sapiens, HEK-293T, footnotes of Tables 8 and 9: S-3 control in the run of the compounds marked a or b, read-out: corresponding IC50 value of S-3 (Wnt signaling pathway)
  IC50: 18.4 µM
[5]; footnotes of Tables 8 and 9: S-3 control in the run of the compounds marked a or b, listed as S-3, read-out: corresponding IC50 value of S-3 (Wnt signaling pathway)
  IC50: 15.3 µM
